What was measured:
Polygonum convolvulus = experiment: Pre-emergence herbicidal effect; format: in vivo; conditions: scored visually after 3 weeks
Method in brief: (§1)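 Seeds in sandy loam were covered with soil and treated pre-emergence with WP or EC formulations applied as aqueous spray with 0.2% wetting agent. Percent damage was scored visually after 3 weeks relative to untreated controls.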

Alopecurus myosuroides = experiment: Pre-emergence herbicidal effect; format: in vivo; conditions: scored visually after 3 weeks
Method in brief: as §1

Abutilon theophrasti [1] = experiment: Pre-emergence herbicidal effect; format: in vivo; conditions: Dosage 320 g/ha, scored visually after 3 weeks
Method in brief: as §1

Viola tricolor [2] = experiment: Pre-emergence herbicidal effect; format: in vivo; conditions: scored visually after 3 weeks
Method in brief: as §1

Setaria viridis [3] = experiment: Pre-emergence herbicidal effect; format: in vivo; conditions: scored visually after 3 weeks
Method in brief: as §1

Amaranthus retroflexus [4] = experiment: Pre-emergence herbicidal effect; format: in vivo; conditions: scored visually after 3 weeks
Method in brief: as §1

Echinochloa crus-galli [5] = experiment: Pre-emergence herbicidal effect; format: in vivo; conditions: scored visually after 3 weeks
Method in brief: as §1

Veronica persica [6] = experiment: Pre-emergence herbicidal effect; format: in vivo; conditions: scored visually after 3 weeks
Method in brief: as §1

Lolium multiflorum [7] = experiment: Pre-emergence herbicidal effect; format: in vivo; conditions: scored visually after 3 weeks
Method in brief: as §1

Stellaria media [8] = experiment: Pre-emergence herbicidal effect; format: in vivo; conditions: scored visually after 3 weeks
Method in brief: as §1

logP (HCOOH) = format: physicochemical; conditions: HCOOH
From the text: Table 2 (physicochemical characterization of selected synthesis examples)

Matricaria inodora [9] = experiment: Post-emergence herbicidal effect; format: in vivo; conditions: assessed visually after about 3 weeks vs untreated controls
Method in brief: (§2)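 Action, expressed in percent from 0 (like controls) to 100 (plants died), is read by eye about 3 weeks after foliar application. Applications use formulated product in water at 600–800 L/ha on one-leaf-stage plants sown in sandy loam.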

Abutilon theophrasti [10] = experiment: Post-emergence herbicidal effect; format: in vivo; conditions: assessed visually after about 3 weeks vs untreated controls
Method in brief: as §2

Viola tricolor [11] = experiment: Post-emergence herbicidal effect; format: in vivo; conditions: assessed visually after about 3 weeks vs untreated controls
Method in brief: as §2

Setaria viridis [12] = experiment: Post-emergence herbicidal effect; format: in vivo; conditions: 320 g/ha, assessed visually after about 3 weeks vs untreated controls
Method in brief: as §2

Amaranthus retroflexus [13] = experiment: Post-emergence herbicidal effect; format: in vivo; conditions: assessed visually after about 3 weeks vs untreated controls
Method in brief: as §2

Echinochloa crus-galli [14] = experiment: Post-emergence herbicidal effect; format: in vivo; conditions: 320 g/ha, assessed visually after about 3 weeks vs untreated controls
Method in brief: as §2

Veronica persica [15] = experiment: Post-emergence herbicidal effect; format: in vivo; conditions: assessed visually after about 3 weeks vs untreated controls
Method in brief: as §2

Lolium multiflorum [16] = experiment: Post-emergence herbicidal effect; format: in vivo; conditions: 320 g/ha, assessed visually after about 3 weeks vs untreated controls
Method in brief: as §2

Stellaria media [17] = experiment: Post-emergence herbicidal effect; format: in vivo; conditions: assessed visually after about 3 weeks vs untreated controls
Method in brief: as §2

Ipomoea purpurea = experiment: Post-emergence herbicidal effect; format: in vivo; conditions: 320 g/ha, assessed visually after about 3 weeks vs untreated controls
Method in brief: as §2

Matricaria inodora [18] = experiment: Pre-emergence herbicidal effect; format: in vivo; conditions: scored visually after 3 weeks
Method in brief: as §1

Avena fatua = experiment: Pre-emergence herbicidal effect; format: in vivo; conditions: scored visually after 3 weeks
Method in brief: as §1

CC(=O)c1cnc(NC2CCCc3sc(C)cc32)nc1N (racemic) [compound 150]
POLCO pre-emergence efficacy (herbicidal activity) (Polygonum convolvulus; Dosage 320 g/ha): 100%
ALOMY pre-emergence efficacy (herbicidal activity) (Alopecurus myosuroides; Dosage 80 g/ha): 90%
ALOMY pre-emergence efficacy (herbicidal activity) (Alopecurus myosuroides; Dosage 320 g/ha): 100%
ABUTH pre-emergence efficacy (herbicidal activity) (Abutilon theophrasti [1]): 70%
VIOTR pre-emergence efficacy (herbicidal activity) (Viola tricolor [2]; Dosage 80 g/ha): 100%
VIOTR pre-emergence efficacy (herbicidal activity) (Viola tricolor [2]; Dosage 320 g/ha): 100%
SETVI pre-emergence efficacy (herbicidal activity) (Setaria viridis [3]; Dosage 80 g/ha): 100%
SETVI pre-emergence efficacy (herbicidal activity) (Setaria viridis [3]; Dosage 320 g/ha): 100%
AMARE pre-emergence efficacy (herbicidal activity) (Amaranthus retroflexus [4]; Dosage 80 g/ha): 100%
AMARE pre-emergence efficacy (herbicidal activity) (Amaranthus retroflexus [4]; Dosage 320 g/ha): 100%
ECHCG pre-emergence efficacy (herbicidal activity) (Echinochloa crus-galli [5]; Dosage 80 g/ha): 90%
ECHCG pre-emergence efficacy (herbicidal activity) (Echinochloa crus-galli [5]; Dosage 320 g/ha): 100%
VERPE pre-emergence efficacy (herbicidal activity) (Veronica persica [6]; Dosage 80 g/ha): 70%
VERPE pre-emergence efficacy (herbicidal activity) (Veronica persica [6]; Dosage 320 g/ha): 100%
LOLMU pre-emergence efficacy (herbicidal activity) (Lolium multiflorum [7]; Dosage 80 g/ha): 100%
LOLMU pre-emergence efficacy (herbicidal activity) (Lolium multiflorum [7]; Dosage 320 g/ha): 100%
STEME pre-emergence efficacy (herbicidal activity) (Stellaria media [8]; Dosage 80 g/ha): 100%
STEME pre-emergence efficacy (herbicidal activity) (Stellaria media [8]; Dosage 320 g/ha): 100%
logP (HCOOH) (logP (HCOOH)): oily; logP (HCOOH): 1.51; 1H NMR (CDCl3, 400 MHZ, δ in ppm): 1.85 (m, 3H, 3H of
post-emergence efficacy MATIN (Matricaria inodora [9]; 80 g/ha): 80%
post-emergence efficacy MATIN (Matricaria inodora [9]; 320 g/ha): 90%
post-emergence efficacy ABUTH (Abutilon theophrasti [10]; 80 g/ha): 80%
post-emergence efficacy ABUTH (Abutilon theophrasti [10]; 320 g/ha): 80%
post-emergence efficacy VIOTR (Viola tricolor [11]; 80 g/ha): 80%
post-emergence efficacy VIOTR (Viola tricolor [11]; 320 g/ha): 90%
post-emergence efficacy SETVI (Setaria viridis [12]): 90%
post-emergence efficacy AMARE (Amaranthus retroflexus [13]; 80 g/ha): 80%
post-emergence efficacy AMARE (Amaranthus retroflexus [13]; 320 g/ha): 90%
post-emergence efficacy ECHCG (Echinochloa crus-galli [14]): 80%
post-emergence efficacy VERPE (Veronica persica [15]; 80 g/ha): 100%
post-emergence efficacy VERPE (Veronica persica [15]; 320 g/ha): 100%
post-emergence efficacy LOLMU (Lolium multiflorum [16]): 90%
post-emergence efficacy STEME (Stellaria media [17]; 80 g/ha): 80%
post-emergence efficacy STEME (Stellaria media [17]; 320 g/ha): 100%
post-emergence efficacy PHBPU (Ipomoea purpurea): 90%

Nc1nc(NC2CCc3sccc32)ncc1C(F)(F)F (racemic) [compound 215]
POLCO pre-emergence efficacy (herbicidal activity) (Polygonum convolvulus; Dosage 320 g/ha): 100%
MATIN pre-emergence efficacy (herbicidal activity) (Matricaria inodora [18]; Dosage 80 g/ha): 100%
MATIN pre-emergence efficacy (herbicidal activity) (Matricaria inodora [18]; Dosage 320 g/ha): 100%
ALOMY pre-emergence efficacy (herbicidal activity) (Alopecurus myosuroides; Dosage 320 g/ha): 90%
VIOTR pre-emergence efficacy (herbicidal activity) (Viola tricolor [2]; Dosage 80 g/ha): 80%
VIOTR pre-emergence efficacy (herbicidal activity) (Viola tricolor [2]; Dosage 320 g/ha): 90%
SETVI pre-emergence efficacy (herbicidal activity) (Setaria viridis [3]; Dosage 80 g/ha): 90%
SETVI pre-emergence efficacy (herbicidal activity) (Setaria viridis [3]; Dosage 320 g/ha): 100%
AMARE pre-emergence efficacy (herbicidal activity) (Amaranthus retroflexus [4]; Dosage 80 g/ha): 100%
AMARE pre-emergence efficacy (herbicidal activity) (Amaranthus retroflexus [4]; Dosage 320 g/ha): 100%
ECHCG pre-emergence efficacy (herbicidal activity) (Echinochloa crus-galli [5]; Dosage 80 g/ha): 80%
ECHCG pre-emergence efficacy (herbicidal activity) (Echinochloa crus-galli [5]; Dosage 320 g/ha): 100%
VERPE pre-emergence efficacy (herbicidal activity) (Veronica persica [6]; Dosage 80 g/ha): 100%
VERPE pre-emergence efficacy (herbicidal activity) (Veronica persica [6]; Dosage 320 g/ha): 100%
LOLMU pre-emergence efficacy (herbicidal activity) (Lolium multiflorum [7]; Dosage 320 g/ha): 100%
STEME pre-emergence efficacy (herbicidal activity) (Stellaria media [8]; Dosage 80 g/ha): 100%
STEME pre-emergence efficacy (herbicidal activity) (Stellaria media [8]; Dosage 320 g/ha): 100%
AVEFA pre-emergence efficacy (herbicidal activity) (Avena fatua; Dosage 80 g/ha): 70%
AVEFA pre-emergence efficacy (herbicidal activity) (Avena fatua; Dosage 320 g/ha): 70%

Cc1cc2c(s1)CCCC2Nc1nc(N)c([S+](C)[O-])c(C(C)F)n1 (racemic) [compound 309]
POLCO pre-emergence efficacy (herbicidal activity) (Polygonum convolvulus; Dosage 80 g/ha): 100%
POLCO pre-emergence efficacy (herbicidal activity) (Polygonum convolvulus; Dosage 320 g/ha): 100%
MATIN pre-emergence efficacy (herbicidal activity) (Matricaria inodora [18]; Dosage 80 g/ha): 90%
MATIN pre-emergence efficacy (herbicidal activity) (Matricaria inodora [18]; Dosage 320 g/ha): 100%
ALOMY pre-emergence efficacy (herbicidal activity) (Alopecurus myosuroides; Dosage 320 g/ha): 90%
ABUTH pre-emergence efficacy (herbicidal activity) (Abutilon theophrasti [1]): 80%
VIOTR pre-emergence efficacy (herbicidal activity) (Viola tricolor [2]; Dosage 80 g/ha): 100%
VIOTR pre-emergence efficacy (herbicidal activity) (Viola tricolor [2]; Dosage 320 g/ha): 100%
SETVI pre-emergence efficacy (herbicidal activity) (Setaria viridis [3]; Dosage 80 g/ha): 90%
SETVI pre-emergence efficacy (herbicidal activity) (Setaria viridis [3]; Dosage 320 g/ha): 100%
AMARE pre-emergence efficacy (herbicidal activity) (Amaranthus retroflexus [4]; Dosage 80 g/ha): 90%
AMARE pre-emergence efficacy (herbicidal activity) (Amaranthus retroflexus [4]; Dosage 320 g/ha): 100%
ECHCG pre-emergence efficacy (herbicidal activity) (Echinochloa crus-galli [5]; Dosage 80 g/ha): 60%
ECHCG pre-emergence efficacy (herbicidal activity) (Echinochloa crus-galli [5]; Dosage 320 g/ha): 90%
VERPE pre-emergence efficacy (herbicidal activity) (Veronica persica [6]; Dosage 80 g/ha): 100%
VERPE pre-emergence efficacy (herbicidal activity) (Veronica persica [6]; Dosage 320 g/ha): 100%
STEME pre-emergence efficacy (herbicidal activity) (Stellaria media [8]; Dosage 80 g/ha): 100%
STEME pre-emergence efficacy (herbicidal activity) (Stellaria media [8]; Dosage 320 g/ha): 100%
AVEFA pre-emergence efficacy (herbicidal activity) (Avena fatua; Dosage 320 g/ha): 90%

From patent publication US10251395B2, “Substituted furano-/thienocycloalkylamino-2-pyrimidine derivatives and use thereof for controlling undesired plant growth” (Bayer CropScience Aktiengesellschaft, priority 2015, dated 2019)
